Structures can show the parent of a compound that is named as a salt.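 Growth conditions: 96-well plates. Treatment: test compound, 48 hours, 5 concentrations. Analysis: linear interpolation between bracketing concentrations; unreached endpoints set to highest concentration. At the GI50, growth is halved.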 Calls of active or inactive are those of the source. Rule as the data show it: active = GI50 up to about 1.1 µM and inactive = higher.
Assays:
Test in all cases: growth of human tumour cells (NCI), 48 h
HCC 2998 = tested on: HCC 2998
M14 = tested on: M14
OVCAR-8 = tested on: OVCAR-8
UO-31 = tested on: UO-31
DU-145 = tested on: DU-145
SK-MEL-28 = tested on: SK-MEL-28
T47D = tested on: T47D
COLO 205 = tested on: COLO 205
SW-620 = tested on: SW-620
OVCAR-3 = tested on: OVCAR-3
MOLT-4 = tested on: MOLT-4
UACC-62 = tested on: UACC-62
MDA-MB-231 = tested on: MDA-MB-231
U-251 = tested on: U-251
Malme-3M = tested on: Malme-3M
A549 = tested on: A549
PC-3 = tested on: PC-3
HT-29 = tested on: HT-29
RPMI-8226 = tested on: RPMI-8226
LOX IMVI = tested on: LOX IMVI
HOP-92 = tested on: HOP-92
NCI-H522 = tested on: NCI-H522
SF-295 = tested on: SF-295
SK-MEL-2 = tested on: SK-MEL-2
SK-OV-3 = tested on: SK-OV-3
HCT-15 = tested on: HCT-15
NCI-H23 = tested on: NCI-H23
CCRF-CEM = tested on: CCRF-CEM
UACC-257 = tested on: UACC-257
NCI-H226 = tested on: NCI-H226
SK-MEL-5 = tested on: SK-MEL-5
EKVX = tested on: EKVX
IGROV-1 = tested on: IGROV-1
MDA-MB-435 = tested on: MDA-MB-435
K562 = tested on: K562
RXF 393 = tested on: RXF 393
ACHN = tested on: ACHN
SR = tested on: SR
HCT-116 = tested on: HCT-116
TK-10 = tested on: TK-10
SNB-19 = tested on: SNB-19
Hs-578T = tested on: Hs-578T
MDA-N = tested on: MDA-N
SNB-75 = tested on: SNB-75
SN12C = tested on: SN12C
HOP-62 = tested on: HOP-62
OVCAR-5 = tested on: OVCAR-5
786-0 = tested on: 786-0
KM12 = tested on: KM12
NCI/ADR-RES = tested on: NCI/ADR-RES
NCI-H460 = tested on: NCI-H460
HL-60 = tested on: HL-60
MCF7 = tested on: MCF7
SF-268 = tested on: SF-268
OVCAR-4 = tested on: OVCAR-4
SF-539 = tested on: SF-539
CAKI-1 = tested on: CAKI-1

SMILES: C=CC1(c2ccc(Cl)c(Cl)c2)OCCO1
- GI50 (HCC 2998): > 100 µM (inactive)
- GI50 (M14): > 100 µM (inactive)
- GI50 (OVCAR-8): > 100 µM (inactive)
- GI50 (UO-31): > 100 µM (inactive)
- GI50 (DU-145): > 100 µM (inactive)
- GI50 (SK-MEL-28): > 100 µM (inactive)
- GI50 (T47D): > 100 µM (inactive)
- GI50 (COLO 205): > 100 µM (inactive)
- GI50 (SW-620): > 100 µM (inactive)
- GI50 (OVCAR-3): > 100 µM (inactive)
- GI50 (MOLT-4): > 100 µM (inactive)
- GI50 (UACC-62): > 100 µM (inactive)
- GI50 (MDA-MB-231): 1.83 µM (inactive)
- GI50 (U-251): > 100 µM (inactive)
- GI50 (Malme-3M): > 100 µM (inactive)
- GI50 (A549): > 100 µM (inactive)
- GI50 (PC-3): > 100 µM (inactive)
- GI50 (HT-29): 88.5 µM (inactive)
- GI50 (RPMI-8226): > 100 µM (inactive)
- GI50 (LOX IMVI): > 100 µM (inactive)
- GI50 (HOP-92): 23.2 µM (inactive)
- GI50 (NCI-H522): > 100 µM (inactive)
- GI50 (SF-295): > 100 µM (inactive)
- GI50 (SK-MEL-2): 79.4 µM (inactive)
- GI50 (SK-OV-3): > 100 µM (inactive)
- GI50 (HCT-15): > 100 µM
- GI50 (NCI-H23): 45.8 µM (inactive)
- GI50 (CCRF-CEM): > 100 µM (inactive)
- GI50 (UACC-257): > 100 µM (inactive)
- GI50 (NCI-H226): 71.8 µM (inactive)
- GI50 (SK-MEL-5): > 100 µM (inactive)
- GI50 (EKVX): > 100 µM (inactive)
- GI50 (IGROV-1): > 100 µM (inactive)
- GI50 (MDA-MB-435): > 100 µM (inactive)
- GI50 (K562): 27.7 µM (inactive)
- GI50 (RXF 393): > 100 µM (inactive)
- GI50 (ACHN): > 100 µM (inactive)
- GI50 (SR): 55.8 µM (inactive)
- GI50 (HCT-116): 97.7 µM (inactive)
- GI50 (TK-10): > 100 µM (inactive)
- GI50 (SNB-19): > 100 µM (inactive)
- GI50 (Hs-578T): 40.8 µM (inactive)
- GI50 (MDA-N): > 100 µM (inactive)
- GI50 (SNB-75): 1.48 µM (inactive)
- GI50 (SN12C): > 100 µM (inactive)
- GI50 (HOP-62): 10.8 µM (inactive)
- GI50 (OVCAR-5): > 100 µM (inactive)
- GI50 (786-0): > 100 µM (inactive)
- GI50 (KM12): > 100 µM (inactive)
- GI50 (NCI/ADR-RES): > 100 µM (inactive)
- GI50 (NCI-H460): > 100 µM (inactive)
- GI50 (HL-60): 16.6 µM (inactive)
- GI50 (MCF7): > 100 µM (inactive)
- GI50 (SF-268): > 100 µM (inactive)
- GI50 (OVCAR-4): > 100 µM (inactive)

SMILES: CC(=O)/N=S(/NC(=O)c1ccc(C)cc1)C(Cl)(Cl)Cl (stereo unspecified)
- GI50 (HCC 2998): 15.1 µM (inactive)
- GI50 (M14): 15.7 µM (inactive)
- GI50 (OVCAR-8): 15.6 µM (inactive)
- GI50 (UO-31): 26.1 µM (inactive)
- GI50 (DU-145): > 100 µM (inactive)
- GI50 (SK-MEL-28): 46.7 µM (inactive)
- GI50 (T47D): 34.3 µM (inactive)
- GI50 (COLO 205): 19.8 µM (inactive)
- GI50 (SW-620): 15.8 µM (inactive)
- GI50 (OVCAR-3): 20.9 µM (inactive)
- GI50 (MOLT-4): 25.1 µM (inactive)
- GI50 (UACC-62): 99.3 µM (inactive)
- GI50 (MDA-MB-231): 26.2 µM (inactive)
- GI50 (U-251): 22 µM (inactive)
- GI50 (Malme-3M): 29.6 µM (inactive)
- GI50 (A549): > 100 µM (inactive)
- GI50 (PC-3): > 100 µM (inactive)
- GI50 (HT-29): 23.6 µM (inactive)
- GI50 (RPMI-8226): 74.3 µM (inactive)
- GI50 (LOX IMVI): 29.7 µM (inactive)
- GI50 (HOP-92): > 100 µM (inactive)
- GI50 (SF-295): > 100 µM (inactive)
- GI50 (SK-OV-3): 70 µM (inactive)
- GI50 (HCT-15): 42.8 µM
- GI50 (NCI-H23): 24.1 µM (inactive)
- GI50 (CCRF-CEM): 18.6 µM (inactive)
- GI50 (UACC-257): 44 µM (inactive)
- GI50 (NCI-H226): > 100 µM (inactive)
- GI50 (SK-MEL-5): 33.3 µM (inactive)
- GI50 (SF-539): 77.1 µM (inactive)
- GI50 (EKVX): 44.5 µM (inactive)
- GI50 (IGROV-1): 38.6 µM (inactive)
- GI50 (MDA-MB-435): 19.1 µM (inactive)
- GI50 (K562): 23.9 µM (inactive)
- GI50 (RXF 393): 44.6 µM (inactive)
- GI50 (ACHN): 41 µM (inactive)
- GI50 (HCT-116): 31 µM (inactive)
- GI50 (TK-10): > 100 µM (inactive)
- GI50 (SNB-19): 94.8 µM (inactive)
- GI50 (Hs-578T): 59.3 µM (inactive)
- GI50 (MDA-N): 55.6 µM (inactive)
- GI50 (SNB-75): 45.3 µM (inactive)
- GI50 (SN12C): 37.9 µM (inactive)
- GI50 (HOP-62): 56.4 µM (inactive)
- GI50 (OVCAR-5): 36.2 µM (inactive)
- GI50 (786-0): 18 µM (inactive)
- GI50 (KM12): > 100 µM (inactive)
- GI50 (NCI/ADR-RES): 20.4 µM (inactive)
- GI50 (NCI-H460): 38.5 µM (inactive)
- GI50 (HL-60): 0.226 µM (active)
- GI50 (MCF7): 51.9 µM (inactive)
- GI50 (SF-268): 97.1 µM (inactive)
- GI50 (OVCAR-4): 31.2 µM (inactive)

SMILES: CN[C@@H](C)[C@@H](O)c1ccccc1 [PSEUDOEPHEDRINE HYDROCHLORIDE]
- GI50 (HCC 2998): > 100 µM (inactive)
- GI50 (M14): > 100 µM (inactive)
- GI50 (OVCAR-8): > 100 µM (inactive)
- GI50 (UO-31): > 100 µM (inactive)
- GI50 (DU-145): > 100 µM (inactive)
- GI50 (SK-MEL-28): > 100 µM (inactive)
- GI50 (T47D): > 100 µM (inactive)
- GI50 (COLO 205): > 100 µM (inactive)
- GI50 (SW-620): > 100 µM (inactive)
- GI50 (OVCAR-3): > 10 µM (inactive)
- GI50 (MOLT-4): > 100 µM (inactive)
- GI50 (MDA-MB-231): > 10 µM (inactive)
- GI50 (U-251): > 100 µM (inactive)
- GI50 (Malme-3M): > 100 µM (inactive)
- GI50 (A549): > 100 µM (inactive)
- GI50 (CAKI-1): > 100 µM (inactive)
- GI50 (PC-3): > 100 µM (inactive)
- GI50 (HT-29): > 100 µM (inactive)
- GI50 (RPMI-8226): > 100 µM (inactive)
- GI50 (LOX IMVI): > 100 µM (inactive)
- GI50 (HOP-92): > 100 µM (inactive)
- GI50 (NCI-H522): > 10 µM (inactive)
- GI50 (SF-295): > 100 µM (inactive)
- GI50 (SK-MEL-2): > 100 µM (inactive)
- GI50 (HCT-15): > 100 µM
- GI50 (NCI-H23): > 100 µM (inactive)
- GI50 (CCRF-CEM): > 10 µM (inactive)
- GI50 (UACC-257): > 100 µM (inactive)
- GI50 (NCI-H226): > 100 µM (inactive)
- GI50 (SK-MEL-5): > 100 µM (inactive)
- GI50 (SF-539): > 100 µM (inactive)
- GI50 (EKVX): > 100 µM (inactive)
- GI50 (IGROV-1): > 100 µM (inactive)
- GI50 (MDA-MB-435): > 100 µM (inactive)
- GI50 (K562): > 100 µM (inactive)
- GI50 (ACHN): > 100 µM (inactive)
- GI50 (HCT-116): > 100 µM (inactive)
- GI50 (TK-10): > 100 µM (inactive)
- GI50 (SNB-19): > 100 µM (inactive)
- GI50 (Hs-578T): > 100 µM (inactive)
- GI50 (MDA-N): > 100 µM (inactive)
- GI50 (SNB-75): > 100 µM (inactive)
- GI50 (SN12C): > 100 µM (inactive)
- GI50 (HOP-62): > 100 µM (inactive)
- GI50 (OVCAR-5): > 100 µM (inactive)
- GI50 (786-0): > 100 µM (inactive)
- GI50 (KM12): > 100 µM (inactive)
- GI50 (NCI/ADR-RES): > 100 µM (inactive)
- GI50 (NCI-H460): > 100 µM (inactive)
- GI50 (HL-60): > 100 µM (inactive)
- GI50 (MCF7): > 100 µM (inactive)
- GI50 (SF-268): > 100 µM (inactive)
- GI50 (OVCAR-4): > 100 µM (inactive)
